Experimental data published in ChEMBL document CHEMBL5113418, “Discovery of precision targeting EZH2 degraders for triple-negative breast cancer” (Eur J Med Chem, 2022).
Active and inactive are the calls of the source. The rule behind the calls is not given here.

Key:
[1] = system: MDA-MB-231; assay: Antiproliferative activity against human MDA-MB-231 cells assessed as cell growth inhibition incubated for 72 hrs by MTT assay; assay type: functional, cell-based; conditions: MDA-MB-231, 72 h
[2] = system: MDA-MB-468; assay: Antiproliferative activity against human MDA-MB-468 cells assessed as cell growth inhibition incubated for 72 hrs by MTT assay; assay type: functional, cell-based; conditions: MDA-MB-468, 72 h
[3] = system: BT-549; assay: Antiproliferative activity against human BT-549 cells assessed as cell growth inhibition incubated for 72 hrs by MTT assay; assay type: functional, cell-based; conditions: BT-549, 72 h
[4] = system: MCF7; assay: Antiproliferative activity against human MCF7 cells assessed as cell growth inhibition incubated for 72 hrs by MTT assay; assay type: functional, cell-based; conditions: MCF7, 72 h
[5] = system: HL-60; assay: Antiproliferative activity against human HL-60 cells assessed as cell growth inhibition incubated for 72 hrs by MTT assay; assay type: functional, cell-based; conditions: HL-60, 72 h
[6] = Antiproliferative activity against human MCF-10A cells assessed as cell growth inhibition incubated for 72 hrs by MTT assay; assay type: toxicity, cell-based
[7] = system: MV4-11; assay: Antiproliferative activity against human MV4-11 cells assessed as cell growth inhibition incubated for 72 hrs by MTT assay; assay type: functional, cell-based; conditions: MV4-11, 72 h
[8] = Antiproliferative activity against human L02 cells assessed as cell growth inhibition incubated for 72 hrs by MTT assay; assay type: toxicity, cell-based
[9] = Antiproliferative activity against human HK-2 cells assessed as cell growth inhibition incubated for 72 hrs by MTT assay; assay type: toxicity, cell-based
[10] = species: Homo sapiens; assay: Binding affinity to recombinant PRC2 complex (unknown origin) assessed as association rate constant by surface plasmon resonance assay
[11] = Binding affinity to recombinant PRC2 complex (unknown origin) assessed as dissociation rate constant by surface plasmon resonance assay; parameters: species or system Homo sapiens
[12] = Binding affinity to recombinant PRC2 complex (unknown origin) assessed as Equilibrium dissociation constant by surface plasmon resonance assay; parameters: species or system Homo sapiens
[13] = molecular target: T1, Protein cereblon/Histone-lysine N-methyltransferase EZH2 (Homo sapiens) (UniProt Q15910+Q96SW2); assay: PROTAC activity at E3 ubiquitin ligase/EZH2 in human MDA-MB-468 cells assessed as induction of EZH2 degradation at 1 uM incubated for 48 hrs by western blot analysis; assay type: cell-based
[14] = molecular target: T1, Protein cereblon/Histone-lysine N-methyltransferase EZH2 (Homo sapiens); assay: PROTAC activity at E3 ubiquitin ligase/EZH2 in human MDA-MB-231 cells assessed as induction of EZH2 degradation at 0.125 to 1 uM incubated for 48 hrs by western blot analysis; assay type: cell-based; conditions: dose 0.125-1 µM, DDE = dose-dependent effect
[15] = molecular target: T1, Protein cereblon/Histone-lysine N-methyltransferase EZH2 (Homo sapiens); assay: PROTAC activity at E3 ubiquitin ligase/EZH2 in human MDA-MB-231 cells assessed as induction of SUZ12 degradation at 0.125 to 1 uM incubated for 48 hrs by western blot analysis; assay type: cell-based; conditions: dose 0.125-1 µM, DDE = dose-dependent effect
[16] = molecular target: T1, Protein cereblon/Histone-lysine N-methyltransferase EZH2 (Homo sapiens); assay: PROTAC activity at E3 ubiquitin ligase/EZH2 in human MDA-MB-231 cells assessed as induction of EED degradation at 0.125 to 1 uM incubated for 48 hrs by western blot analysis; assay type: cell-based; conditions: dose 0.125-1 µM, DDE = dose-dependent effect
[17] = molecular target: T1, Protein cereblon/Histone-lysine N-methyltransferase EZH2 (Homo sapiens); assay: PROTAC activity at E3 ubiquitin ligase/EZH2 in human MDA-MB-468 cells assessed as induction of EZH2 degradation at 0.125 to 1 uM incubated for 48 hrs by western blot analysis; assay type: cell-based; conditions: dose 0.125-1 µM, DDE = dose-dependent effect
[18] = molecular target: T1, Protein cereblon/Histone-lysine N-methyltransferase EZH2 (Homo sapiens); assay: PROTAC activity at E3 ubiquitin ligase/EZH2 in human MDA-MB-468 cells assessed as induction of SUZ12 degradation at 0.125 to 1 uM incubated for 48 hrs by western blot analysis; assay type: cell-based; conditions: dose 0.125-1 µM, DDE = dose-dependent effect
[19] = molecular target: T1, Protein cereblon/Histone-lysine N-methyltransferase EZH2 (Homo sapiens); assay: PROTAC activity at E3 ubiquitin ligase/EZH2 in human MDA-MB-468 cells assessed as induction of EED degradation at 0.125 to 1 uM incubated for 48 hrs by western blot analysis; assay type: cell-based; conditions: dose 0.125-1 µM, DDE = dose-dependent effect
[20] = molecular target: T1, Protein cereblon/Histone-lysine N-methyltransferase EZH2 (Homo sapiens); assay: PROTAC activity at E3 ubiquitin ligase/EZH2 in human MDA-MB-468 cells assessed as induction of EZH2 degradation at 1 uM incubated for 12 to 48 hrs by western blot analysis; assay type: cell-based; conditions: time 12-48 hrs
[21] = molecular target: T1, Protein cereblon/Histone-lysine N-methyltransferase EZH2 (Homo sapiens); assay: PROTAC activity at E3 ubiquitin ligase/EZH2 in human MDA-MB-468 cells assessed as increase in EZH1 expression at 0.25 to 0.75 uM incubated for 48 hrs by western blot analysis; assay type: cell-based; conditions: dose 0.25-0.75 µM
[22] = molecular target: T1, Protein cereblon/Histone-lysine N-methyltransferase EZH2 (Homo sapiens); assay: PROTAC activity at E3 ubiquitin ligase/EZH2 in human MDA-MB-468 cells assessed as decrease in CARM1 expression at 0.25 to 0.75 uM incubated for 48 hrs by western blot analysis; assay type: cell-based; conditions: dose 0.25-0.75 µM
[23] = molecular target: T1, Protein cereblon/Histone-lysine N-methyltransferase EZH2 (Homo sapiens); assay: PROTAC activity at E3 ubiquitin ligase/EZH2 in human MDA-MB-468 cells assessed as decrease in H3K27me3 expression at 0.25 to 0.75 uM incubated for 48 hrs by western blot analysis; assay type: cell-based; conditions: dose 0.25-0.75 µM
[24] = system: MDA-MB-231; assay: Antiproliferative activity against human MDA-MB-231 cells assessed as colony growth inhibition at 0.25 to 0.75 uM incubated for 48 hrs by crystal violet staining method; assay type: functional, cell-based; conditions: dose 0.25-0.75 µM
[25] = system: MDA-MB-468; assay: Antiproliferative activity against human MDA-MB-468 cells assessed as colony growth inhibition at 0.25 to 0.75 uM incubated for 48 hrs by crystal violet staining method; assay type: functional, cell-based; conditions: dose 0.25-0.75 µM
[26] = system: MDA-MB-468; assay: Antiproliferative activity against human MDA-MB-468 cells assessed as reduction in EdU positive cells at 0.25 to 0.75 uM incubated for 48 hrs by EdU incorporation assay; assay type: functional, cell-based; conditions: dose 0.25-0.75 µM
[27] = system: MDA-MB-231; assay: Induction of apoptosis in human MDA-MB-231 cells assessed as increase in apoptotic cells at 0.25 to 0.75 uM incubated for 48 hrs by Annexin V-PE and 7AAD staining based flow cytometry; assay type: functional, cell-based; conditions: dose 0.25-0.75 µM
[28] = system: MDA-MB-468; assay: Induction of apoptosis in human MDA-MB-468 cells assessed as increase in apoptotic cells at 0.25 to 0.75 uM incubated for 48 hrs by Annexin V-PE and 7AAD staining based flow cytometry; assay type: functional, cell-based; conditions: dose 0.25-0.75 µM
[29] = system: MDA-MB-231; assay: Induction of apoptosis in human MDA-MB-231 cells assessed as increase in reduction in mitochondrial membrane potential at 0.25 to 0.75 uM incubated for 48 hrs by JC-1 staining based flow cytometry analysis; assay type: functional, cell-based; conditions: dose 0.25-0.75 µM
[30] = system: MDA-MB-468; assay: Induction of apoptosis in human MDA-MB-468 cells assessed as increase in reduction in mitochondrial membrane potential at 0.25 to 0.75 uM incubated for 48 hrs by JC-1 staining based flow cytometry analysis; assay type: functional, cell-based; conditions: dose 0.25-0.75 µM
[31] = system: MDA-MB-468; assay: Induction of apoptosis in human MDA-MB-468 cells assessed as increase in Bax expression at 0.25 to 0.75 uM incubated for 48 hrs by western blot analysis; assay type: functional, cell-based; conditions: dose 0.25-0.75 µM
[32] = system: MDA-MB-468; assay: Induction of apoptosis in human MDA-MB-468 cells assessed as decrease in Bcl-2 expression at 0.25 to 0.75 uM incubated for 48 hrs by western blot analysis; assay type: functional, cell-based; conditions: dose 0.25-0.75 µM
[33] = system: MDA-MB-468; assay: Induction of apoptosis in human MDA-MB-468 cells assessed as increase in cleaved caspase-3 expression at 0.25 to 0.75 uM incubated for 48 hrs by western blot analysis; assay type: functional, cell-based; conditions: dose 0.25-0.75 µM
[34] = system: MDA-MB-468; assay: Induction of apoptosis in human MDA-MB-468 cells assessed as increase in PARP expression at 0.25 to 0.75 uM incubated for 48 hrs by western blot analysis; assay type: functional, cell-based; conditions: dose 0.25-0.75 µM
[35] = molecular target: T1, Protein cereblon/Histone-lysine N-methyltransferase EZH2 (Homo sapiens); assay: PROTAC activity at E3 ubiquitin ligase/EZH2 in human MDA-MB-468 cells assessed as reduction on EZH2 expression at 0.75 uM incubated for 24 hrs by proteomic analysis; assay type: cell-based
[36] = molecular target: T1, Protein cereblon/Histone-lysine N-methyltransferase EZH2 (Homo sapiens); assay: PROTAC activity at E3 ubiquitin ligase/EZH2 in human MDA-MB-468 cells assessed as reduction on SUZ12 expression at 0.75 uM incubated for 24 hrs by proteomic analysis; assay type: cell-based
[37] = molecular target: T1, Protein cereblon/Histone-lysine N-methyltransferase EZH2 (Homo sapiens); assay: PROTAC activity at E3 ubiquitin ligase/EZH2 in human MDA-MB-468 cells assessed as reduction on EED expression at 0.75 uM incubated for 24 hrs by proteomic analysis; assay type: cell-based

T1 sequence (Q15910 whole entry, looked up): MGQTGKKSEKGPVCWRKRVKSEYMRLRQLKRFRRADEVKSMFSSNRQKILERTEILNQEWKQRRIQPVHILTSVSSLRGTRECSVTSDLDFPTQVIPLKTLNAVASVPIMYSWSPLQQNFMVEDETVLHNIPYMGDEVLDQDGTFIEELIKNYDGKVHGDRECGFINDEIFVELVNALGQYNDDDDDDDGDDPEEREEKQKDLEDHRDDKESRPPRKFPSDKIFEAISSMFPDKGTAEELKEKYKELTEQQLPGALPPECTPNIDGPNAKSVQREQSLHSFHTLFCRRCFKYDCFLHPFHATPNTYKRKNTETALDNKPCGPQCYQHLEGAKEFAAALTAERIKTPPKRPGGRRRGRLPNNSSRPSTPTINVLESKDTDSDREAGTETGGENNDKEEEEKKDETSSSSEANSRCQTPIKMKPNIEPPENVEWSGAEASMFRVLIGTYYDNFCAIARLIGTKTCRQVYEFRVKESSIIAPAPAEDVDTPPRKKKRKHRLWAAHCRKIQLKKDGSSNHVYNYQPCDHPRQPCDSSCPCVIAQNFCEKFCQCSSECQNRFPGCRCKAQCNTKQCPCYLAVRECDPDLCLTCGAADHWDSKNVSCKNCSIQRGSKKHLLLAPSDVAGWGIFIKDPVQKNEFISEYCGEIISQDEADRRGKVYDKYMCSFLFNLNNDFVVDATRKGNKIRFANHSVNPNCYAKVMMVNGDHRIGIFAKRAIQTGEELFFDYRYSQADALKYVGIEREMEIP
T1 sequence (Q96SW2 whole entry, looked up): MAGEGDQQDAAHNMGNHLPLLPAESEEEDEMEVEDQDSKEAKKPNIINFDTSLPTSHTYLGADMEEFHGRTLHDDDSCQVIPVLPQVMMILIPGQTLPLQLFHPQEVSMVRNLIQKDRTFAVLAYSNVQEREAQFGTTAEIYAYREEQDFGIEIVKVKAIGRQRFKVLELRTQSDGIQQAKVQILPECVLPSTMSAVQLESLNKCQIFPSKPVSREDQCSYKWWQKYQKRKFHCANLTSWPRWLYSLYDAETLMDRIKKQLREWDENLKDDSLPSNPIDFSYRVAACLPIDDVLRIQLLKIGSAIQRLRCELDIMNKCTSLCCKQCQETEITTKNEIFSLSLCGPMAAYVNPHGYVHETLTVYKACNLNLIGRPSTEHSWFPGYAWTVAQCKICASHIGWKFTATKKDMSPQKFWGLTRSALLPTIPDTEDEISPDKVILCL

Structure (SMILES): CC[C@H](C)n1cc(C)c2c(C(=O)NCc3c(C)cc(C)[nH]c3=O)cc(-c3ccc(N4CCN(C(=O)CCCCCCCCc5cn(CCOCCOCCOCCOCCOCCOCCNc6cccc7c6C(=O)N(C6CCC(=O)NC6=O)C7=O)nn5)CC4)nc3)cc21 (stereo partly specified)
- IC50 [1]: 640 nM
- IC50 [2]: 420 nM
- IC50 [3]: 550 nM
- IC50 [4]: 22100 nM
- IC50 [5]: 1670 nM
- IC50 at 72 h [6]: > 40000 nM
- IC50 [7]: 1020 nM
- IC50 at 72 h [8]: > 40000 nM
- IC50 at 72 h [9]: > 40000 nM
- Ka [10]: 2.6 10^6/Ms
- koff [11]: 0.07172 s⁻¹
- Kd [12]: 27.5 nM

Structure (SMILES): CC[C@H](C)n1cc(C)c2c(C(=O)NCc3c(C)cc(C)[nH]c3=O)cc(-c3ccc(N4CCNCC4)nc3)cc21 [GSK2816126]
- IC50 [1]: 12800 nM
- IC50 [2]: 11900 nM
- IC50 [3]: 16300 nM
- IC50 [4]: 21400 nM
- IC50 [5]: 14000 nM
- IC50 at 72 h [6]: > 40000 nM
- IC50 [7]: 7340 nM
- IC50 at 72 h [8]: > 40000 nM
- IC50 at 72 h [9]: > 40000 nM
- Ka [10]: 1.91 10^6/Ms
- koff [11]: 0.04174 s⁻¹
- Kd [12]: 21.8 nM

Structure (SMILES): Cc1cc(C)c(CNC(=O)c2cc(-c3ccc(N4CCN(C(=O)CCCCCCCCc5cn(CCOCCOCCOCCOCCOCCOCCNc6cccc7c6C(=O)N(C6CCC(=O)NC6=O)C7=O)nn5)CC4)nc3)cc3c2cnn3C(C)C)c(=O)[nH]1 (stereo unspecified)
- IC50 [1]: 570 nM
- IC50 [2]: 380 nM
- IC50 [3]: 400 nM
- IC50 [4]: 18000 nM
- IC50 [5]: 1080 nM
- IC50 at 72 h [6]: > 40000 nM
- IC50 [7]: 740 nM
- IC50 at 72 h [8]: > 40000 nM
- IC50 at 72 h [9]: > 40000 nM
- Ka [10]: 5.7 10^6/Ms
- koff [11]: 0.09231 s⁻¹
- Kd [12]: 16.2 nM
- Activity [13]: Active
- Activity [14]: Dde
- Activity [15]: Dde
- Activity [16]: Dde
- Activity [17]: Dde
- Activity [18]: Dde
- Activity [19]: Dde
- Activity [20]: Active
- Activity [21]: Active
- Activity [22]: Active
- Activity [23]: Active
- Activity [24]: Active
- Activity [25]: Active
- Activity [26]: Active
- Activity [27]: Active
- Activity [28]: Active
- Activity [29]: Active
- Activity [30]: Active
- Activity [31]: Active
- Activity [32]: Active
- Activity [33]: Active
- Activity [34]: Active
- Activity [35]: Active
- Activity [36]: Active
- Activity [37]: Active
